Here are results for 2 compounds from paper PMC2895764 (Journal of molecular biology, 2010).

In one experiment the test system is NIH 3T3 cell. Kind of experiment: Reactivation of K-ras-mediated epigenetic silencing of Fas gene. It is filed as cell-based.
For a further experiment, the system named is G9a-like protein (GLP). Particulars: cited from earlier work.

SMILES strings stand for the structures.

On to `Nc1ncn([C@H]2C[C@H](O)[C@@H](CO)O2)c(=O)n1` [5-aza, 5-aza-2′-deoxycytidine], for which the “reactivation (derepression) of Ras-mediated epigenetic silencing of Fas” value in the experiment on NIH 3T3 cell is given as “derepressed”.
Turning to `COc1cc2nc(N3CCCN(C)CC3)nc(NC3CCN(Cc4ccccc4)CC3)c2cc1OC` [BIX-01294], the “reactivation (derepression) of Ras-mediated epigenetic silencing of Fas” value in the experiment with NIH 3T3 cell is given as “derepressed”. Moreover, the “IC50 against GLP” value in the experiment on G9a-like protein (GLP) is “low μM range”.
